Reference: EP0354818A2, “Pharmaceutical compositions containing polyaromatic compounds as active ingredient and their use” (HADASSAH MEDICAL ORGANIZATION, priority 1988, dated 1990)
Values belong to the compound of their own block, whether it stands above or below them.

Key:
[1] = target: T1, ESb mouse lymphoma heparanase (Mus musculus, UniProt Q6YGZ1); experiment: Inhibition of heparanase degradation of 35S labelled ECM; format: biochemical; details: compound 10 µgr/ml, 24 hrs incubation; for Total low-mol-wt. HS fragments released by heparanase (cpm): control 17,756 cpm
T1 construct: endogenous in cells; host or cells: ESb mouse lymphoma cells
T1 sequence (Q6YGZ1 150-535 limits assumed): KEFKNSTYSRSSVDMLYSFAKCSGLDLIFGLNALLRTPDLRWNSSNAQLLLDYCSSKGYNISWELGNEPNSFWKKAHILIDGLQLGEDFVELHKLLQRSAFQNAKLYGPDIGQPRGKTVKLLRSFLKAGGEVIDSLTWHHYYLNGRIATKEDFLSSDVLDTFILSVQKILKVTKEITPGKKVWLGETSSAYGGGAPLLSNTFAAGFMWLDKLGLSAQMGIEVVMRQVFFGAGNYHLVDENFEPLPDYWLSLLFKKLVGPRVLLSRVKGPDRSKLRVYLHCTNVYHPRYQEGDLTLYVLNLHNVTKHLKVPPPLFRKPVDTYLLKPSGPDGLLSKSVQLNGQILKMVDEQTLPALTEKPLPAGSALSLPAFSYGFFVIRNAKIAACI
T1 sequence (Q6YGZ1 28-101 limits assumed): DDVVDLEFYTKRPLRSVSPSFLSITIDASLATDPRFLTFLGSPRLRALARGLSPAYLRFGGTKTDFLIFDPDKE
Procedure: The ability of several of the above mentioned compounds to inhibit lymphoma-cell derived heparanase was tested in the assay system described by Vlodavsky et. al. (Cancer Research. 43: 2704-2711 (1983). ³⁵S labelled ECM was incubated for 24 hrs with ESb mouse lymphoma heparanase in the presence of 10 ugr ml of the indicated compounds. Degradation of the sulfated glycosaminoglycan was followed by gel filtration of the supernatants. Heparanase activity is expressed as the total amount of labelled low-molecular-weight fragments released from the ECM substrate. The results are summarized in Table III.

[2] = target: T2, LPL (Rattus norvegicus, UniProt Q06000); experiment: Plasma levels of LPL after oral administration to rats; format: in vivo; details: 1ml of 10%-20% solution
T2 construct: from tissue; host or cells: rat plasma (in vivo, after oral aluminon)
T2 sequence (Q06000 28-474): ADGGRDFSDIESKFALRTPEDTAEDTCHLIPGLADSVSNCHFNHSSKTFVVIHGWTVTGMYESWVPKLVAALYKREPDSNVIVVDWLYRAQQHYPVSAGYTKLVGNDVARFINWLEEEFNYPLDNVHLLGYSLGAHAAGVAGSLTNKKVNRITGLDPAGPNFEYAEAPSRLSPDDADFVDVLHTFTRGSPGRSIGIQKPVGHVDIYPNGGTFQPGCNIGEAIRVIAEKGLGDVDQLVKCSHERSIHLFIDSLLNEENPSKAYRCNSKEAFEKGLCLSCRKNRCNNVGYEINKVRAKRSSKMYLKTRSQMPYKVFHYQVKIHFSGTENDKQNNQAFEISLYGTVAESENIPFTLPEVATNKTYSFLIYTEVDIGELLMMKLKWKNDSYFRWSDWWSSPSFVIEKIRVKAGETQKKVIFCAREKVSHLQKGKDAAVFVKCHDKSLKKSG
Excerpt: Moreover, since aluminon can be absorbed through the gastrointestinal tract, it can be used as an orally administrable anticoagulant (as opposed to heparin which has to be given by injection).

[3] = system: fresh human blood; experiment: Anticoagulant effect: partial thromboplastin time (PTT) in blood samples; details: citrated human blood, after addition of Ca++, control 30.5
Procedure: 0.25 ml of the indicated concentration of the drug (x10, diluted in saline) were added to 2.25 ml of fresh human blood, collected in the presence of citrate. PTT was measured following the addition of Ca⁺⁺.

[4] = target: T3, lipoprotein lipase (LPL) (Rattus norvegicus, UniProt Q06000); experiment: LPL activity in cultured heart cells and medium; format: cell-based; details: 24 hrs incubation of heart cells; for LPL activity: total: cells plus medium; for % increase in the total: versus 0 M
T3 construct: endogenous in cells; host or cells: F1 heart cell cultures from newborn rat hearts (mainly non-beating mesenchymal cells)
T3 sequence (Q06000 28-474): T2 sequence (Q06000 28-474)
Procedure: F₁ heart cell cultures were prepared from newborn rat hearts as previously described (Chajek, T. et al, Biochem. Biophys. Acta 528, 456-474(1978)). They consisted mainly of non-beating mesenchymal cells and were used 8-12 days after their isolation.
The enzyme activity was determined on aliquots of medium and of homogenates of cells which had been released from the petri dish with a rubber policeman in 1 ml of 0.025 M NH₃/NH₄C1 buffer (pH 8.1) containing 1 unit/ml of heparin. The assay system consisted of 0.1 ml of medium or 0.1 ml of cell homogenate ([…]) and 0.1 ml of substrate containing labeled triolein, prepared according to the method of Nilsson-Ehle and Schotz, (J. Lipid Res. 17, 536-541 (1976)). Incubations were carried out at 37°C for 45 min. The reaction was stopped by the addition of methanol/chloroform/heptane (1,4:1.25:1, v/v) and the extraction of fatty acids was performed according to the method of Belfrage and Vaughan (J. Lipid Res. 10, 341-344 (1969), as modified by Nilsson-Ehle and Schotz. Enzyme activity was calculated according to the formula of Nilsson-Ehle and Schotz.

SMILES: O=C(O)C1=CC(=C(c2ccc(O)c(C(=O)O)c2)c2ccc(O)c(C(=O)O)c2)C=CC1=O [Aluminon]
Total low-mol-wt. HS fragments released by heparanase (cpm) [1]: 3,822 cpm
plasma levels of LPL [2]: elevated by about an order of magnitude
PTT ([3]; Aluminon final conc. 0.01 mg/ml): 30.5 s
PTT ([3]; Aluminon final conc. 0.1 mg/ml): 190 s
PTT ([3]; Aluminon final conc. 1 mg/ml): >300 s

Total low-mol-wt. HS fragments released by heparanase (cpm) [1]: 6,986 cpm
LPL activity: total ([4]; Evan's Blue 10⁻³ M): 7749 m mole FFA/h/dish
% increase in the total ([4]; Evan's Blue 10⁻³ M): +139.4%
LPL activity: total ([4]; Evan's Blue 10⁻⁴ M): 5230 m mole FFA/h/dish
% increase in the total ([4]; Evan's Blue 10⁻⁴ M): +61.6%
LPL activity: total ([4]; Evan's Blue 10⁻⁵ M): 4288 m mole FFA/h/dish
% increase in the total ([4]; Evan's Blue 10⁻⁵ M): +32.5%
SMILES: Cc1cc(-c2ccc(/N=N/c3ccc4c(S(=O)(=O)O)cc(S(=O)(=O)O)c(N)c4c3O)c(C)c2)ccc1/N=N/c1ccc2c(S(=O)(=O)O)cc(S(=O)(=O)O)c(N)c2c1O [Evan's Blue]

% Inhibition [1]: 32%
SMILES: CCN(Cc1cccc(S(=O)(=O)O)c1)c1ccc(C(=C2C=CC(=[N+](CC)Cc3cccc(S(=O)(=O)O)c3)C=C2)c2ccc(O)cc2S(=O)(=O)[O-])cc1 [Fast Green]

SMILES: O=S(=O)(O)c1ccc(N=C2C=CC(=C(c3ccc(Nc4ccc(S(=O)(=O)O)cc4)cc3)c3ccc(Nc4ccc(S(=O)(=O)O)cc4)cc3)C=C2)cc1 [Methyl Blue]
% Inhibition [1]: 23%
Total low-mol-wt. HS fragments released by heparanase (cpm) [1]: 13,676 cpm
